Experimental data from US12275731B2, “Azaindole inhibitors of wild-type and mutant forms of LRRK2” (DANA-FARBER CANCER INSTITUTE, INC., priority 2018, dated 2025).

Tests used:
Experiment in all cases: KinomeScan profiling
Assay type in all cases: binding
[1] = target: T1, ABL1(H396P)-phosphorylated (Homo sapiens, UniProt P00519, H396P); conditions: read-out: % control
T1 construct: purchased KinomeScan®
Description: (§1) The kinase selectivity of inventive compounds 77, 96 and 101 was evaluated by KinomeScan®. KinomeScan® analysis was performed against a near comprehensive panel of 468 kinases. The control percentage (% control) for inventive compounds at 1 μM in DMSO was determined by Equation 1: % control=(inventive compound−positive control)/(negative control−positive control)×100%, Equation 1
(§2) wherein the positive control is a compound with a % control value of 0% relative light units (RLU), and the negative control (i.e., DMSO) has % control value of 100% RLU. The enzyme selectivity in the present invention is defined as follows: inventive compounds are considered active for an enzyme when the observed % control is less than 35% (<35%).

ASK1 = target: T2, ASK1 (Homo sapiens, UniProt Q99683); conditions: ASK1, 1 μM; read-out: % control
T2 construct: purchased KinomeScan®
T2 sequence (Q99683 1-1374): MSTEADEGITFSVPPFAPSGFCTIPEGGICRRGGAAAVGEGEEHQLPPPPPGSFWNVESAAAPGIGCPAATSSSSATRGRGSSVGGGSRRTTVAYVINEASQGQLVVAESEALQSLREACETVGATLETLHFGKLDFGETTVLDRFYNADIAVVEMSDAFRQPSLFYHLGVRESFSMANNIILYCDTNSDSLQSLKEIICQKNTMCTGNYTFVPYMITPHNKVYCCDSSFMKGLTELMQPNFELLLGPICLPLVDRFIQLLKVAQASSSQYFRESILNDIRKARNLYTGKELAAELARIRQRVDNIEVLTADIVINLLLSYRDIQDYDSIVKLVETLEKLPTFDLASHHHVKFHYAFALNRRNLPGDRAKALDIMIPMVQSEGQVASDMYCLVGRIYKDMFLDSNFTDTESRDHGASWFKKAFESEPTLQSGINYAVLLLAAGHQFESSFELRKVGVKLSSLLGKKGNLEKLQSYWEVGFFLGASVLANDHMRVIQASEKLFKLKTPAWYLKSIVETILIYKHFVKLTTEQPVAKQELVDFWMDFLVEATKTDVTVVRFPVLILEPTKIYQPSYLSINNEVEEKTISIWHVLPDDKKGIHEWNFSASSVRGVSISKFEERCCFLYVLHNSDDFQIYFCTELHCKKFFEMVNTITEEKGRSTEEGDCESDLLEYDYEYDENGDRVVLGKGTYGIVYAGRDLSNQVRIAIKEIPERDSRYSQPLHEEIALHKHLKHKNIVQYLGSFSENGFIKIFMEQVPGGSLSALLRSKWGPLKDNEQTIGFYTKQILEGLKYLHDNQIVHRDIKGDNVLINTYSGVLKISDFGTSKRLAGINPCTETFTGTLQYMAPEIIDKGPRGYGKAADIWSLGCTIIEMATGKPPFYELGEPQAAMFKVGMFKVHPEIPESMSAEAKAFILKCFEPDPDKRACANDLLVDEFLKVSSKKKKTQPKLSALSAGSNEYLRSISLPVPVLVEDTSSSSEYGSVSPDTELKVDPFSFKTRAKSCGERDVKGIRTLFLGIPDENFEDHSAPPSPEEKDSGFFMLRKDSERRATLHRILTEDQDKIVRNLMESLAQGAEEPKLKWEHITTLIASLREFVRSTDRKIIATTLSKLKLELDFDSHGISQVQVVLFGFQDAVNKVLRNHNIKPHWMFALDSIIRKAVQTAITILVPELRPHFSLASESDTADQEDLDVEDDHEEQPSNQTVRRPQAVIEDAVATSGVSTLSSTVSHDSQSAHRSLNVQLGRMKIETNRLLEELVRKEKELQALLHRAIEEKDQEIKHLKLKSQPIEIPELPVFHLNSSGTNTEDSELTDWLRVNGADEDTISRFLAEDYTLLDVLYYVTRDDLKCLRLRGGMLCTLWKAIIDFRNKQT
Description: as §1, §2

CDK4-cyclinD3 = CDK4-cyclinD3 (Homo sapiens, UniProt P11802); conditions: CDK4-cyclinD3, 1 μM; read-out: % control
CDK4-cyclinD3, sequence (P11802 whole entry): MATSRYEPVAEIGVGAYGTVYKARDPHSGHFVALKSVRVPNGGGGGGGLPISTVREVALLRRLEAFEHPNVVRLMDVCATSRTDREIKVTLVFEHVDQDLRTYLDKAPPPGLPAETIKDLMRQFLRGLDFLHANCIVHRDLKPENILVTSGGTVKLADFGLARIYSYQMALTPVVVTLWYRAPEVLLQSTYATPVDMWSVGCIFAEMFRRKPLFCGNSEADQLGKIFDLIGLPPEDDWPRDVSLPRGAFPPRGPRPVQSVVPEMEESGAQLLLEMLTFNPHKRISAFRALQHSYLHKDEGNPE
CDK4-cyclinD3, sequence (P30281 whole entry partner): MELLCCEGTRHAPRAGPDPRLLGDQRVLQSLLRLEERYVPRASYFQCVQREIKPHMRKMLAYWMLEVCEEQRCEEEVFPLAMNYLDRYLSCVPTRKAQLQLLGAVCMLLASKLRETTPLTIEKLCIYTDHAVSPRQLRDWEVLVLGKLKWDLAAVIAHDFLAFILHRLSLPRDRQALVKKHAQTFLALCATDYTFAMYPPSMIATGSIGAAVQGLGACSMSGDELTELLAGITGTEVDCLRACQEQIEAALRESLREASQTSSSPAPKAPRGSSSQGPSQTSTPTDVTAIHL
Description: as §1, §2

CLK2 = CLK2 (Homo sapiens, UniProt P49760); conditions: CLK2, 1 μM; read-out: % control
CLK2, sequence (P49760 whole entry): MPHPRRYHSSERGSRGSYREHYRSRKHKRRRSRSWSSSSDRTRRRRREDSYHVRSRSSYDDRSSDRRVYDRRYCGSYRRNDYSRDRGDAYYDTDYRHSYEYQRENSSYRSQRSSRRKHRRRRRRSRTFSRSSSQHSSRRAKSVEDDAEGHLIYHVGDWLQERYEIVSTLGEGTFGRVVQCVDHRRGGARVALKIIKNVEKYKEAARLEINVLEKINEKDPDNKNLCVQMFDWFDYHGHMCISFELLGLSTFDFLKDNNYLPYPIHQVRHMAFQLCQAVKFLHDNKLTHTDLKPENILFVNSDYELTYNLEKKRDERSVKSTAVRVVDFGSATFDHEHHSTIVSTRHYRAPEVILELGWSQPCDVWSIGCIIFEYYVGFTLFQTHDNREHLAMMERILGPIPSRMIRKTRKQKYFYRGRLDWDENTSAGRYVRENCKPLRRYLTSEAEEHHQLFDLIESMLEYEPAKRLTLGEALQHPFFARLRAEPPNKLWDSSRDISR
Description: as §1, §2

EGFR = EGFR (Homo sapiens, UniProt P00533); conditions: read-out: % control
EGFR, sequence (P00533 25-1210): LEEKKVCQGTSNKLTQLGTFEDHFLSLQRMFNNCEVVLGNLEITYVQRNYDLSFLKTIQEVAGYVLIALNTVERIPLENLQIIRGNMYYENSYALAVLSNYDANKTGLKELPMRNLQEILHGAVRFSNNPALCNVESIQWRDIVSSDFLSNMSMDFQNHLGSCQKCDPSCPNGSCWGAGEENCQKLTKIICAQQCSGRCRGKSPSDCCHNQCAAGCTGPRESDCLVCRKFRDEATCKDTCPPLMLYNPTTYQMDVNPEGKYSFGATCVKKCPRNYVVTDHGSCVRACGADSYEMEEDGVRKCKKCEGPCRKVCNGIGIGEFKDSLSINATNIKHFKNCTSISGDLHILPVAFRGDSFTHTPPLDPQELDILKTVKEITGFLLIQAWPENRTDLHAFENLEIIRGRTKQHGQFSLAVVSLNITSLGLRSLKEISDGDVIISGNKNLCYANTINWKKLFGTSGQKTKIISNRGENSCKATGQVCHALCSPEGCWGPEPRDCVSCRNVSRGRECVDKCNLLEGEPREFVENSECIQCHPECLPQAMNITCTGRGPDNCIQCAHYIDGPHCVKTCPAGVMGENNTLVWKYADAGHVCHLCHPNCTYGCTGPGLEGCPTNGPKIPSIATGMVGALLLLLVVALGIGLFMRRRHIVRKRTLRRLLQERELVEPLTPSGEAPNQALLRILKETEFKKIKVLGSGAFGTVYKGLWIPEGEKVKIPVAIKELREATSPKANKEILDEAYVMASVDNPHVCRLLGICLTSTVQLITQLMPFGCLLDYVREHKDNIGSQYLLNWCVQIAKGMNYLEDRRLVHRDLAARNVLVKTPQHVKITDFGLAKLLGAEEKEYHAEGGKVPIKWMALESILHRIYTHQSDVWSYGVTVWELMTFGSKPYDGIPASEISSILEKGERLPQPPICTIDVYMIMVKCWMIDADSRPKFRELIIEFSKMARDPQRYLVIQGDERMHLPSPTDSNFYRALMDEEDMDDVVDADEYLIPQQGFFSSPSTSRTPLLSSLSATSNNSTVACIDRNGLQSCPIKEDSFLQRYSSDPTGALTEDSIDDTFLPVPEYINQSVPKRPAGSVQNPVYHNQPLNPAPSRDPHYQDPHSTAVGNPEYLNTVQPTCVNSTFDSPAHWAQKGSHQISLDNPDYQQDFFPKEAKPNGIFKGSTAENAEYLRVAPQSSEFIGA
Description: as §1, §2

MAP3K3 = target: T3, MAP3K3 (Homo sapiens, UniProt Q99759); conditions: MAP3K3, 1 μM; read-out: % control
T3 sequence (Q99759 1-626): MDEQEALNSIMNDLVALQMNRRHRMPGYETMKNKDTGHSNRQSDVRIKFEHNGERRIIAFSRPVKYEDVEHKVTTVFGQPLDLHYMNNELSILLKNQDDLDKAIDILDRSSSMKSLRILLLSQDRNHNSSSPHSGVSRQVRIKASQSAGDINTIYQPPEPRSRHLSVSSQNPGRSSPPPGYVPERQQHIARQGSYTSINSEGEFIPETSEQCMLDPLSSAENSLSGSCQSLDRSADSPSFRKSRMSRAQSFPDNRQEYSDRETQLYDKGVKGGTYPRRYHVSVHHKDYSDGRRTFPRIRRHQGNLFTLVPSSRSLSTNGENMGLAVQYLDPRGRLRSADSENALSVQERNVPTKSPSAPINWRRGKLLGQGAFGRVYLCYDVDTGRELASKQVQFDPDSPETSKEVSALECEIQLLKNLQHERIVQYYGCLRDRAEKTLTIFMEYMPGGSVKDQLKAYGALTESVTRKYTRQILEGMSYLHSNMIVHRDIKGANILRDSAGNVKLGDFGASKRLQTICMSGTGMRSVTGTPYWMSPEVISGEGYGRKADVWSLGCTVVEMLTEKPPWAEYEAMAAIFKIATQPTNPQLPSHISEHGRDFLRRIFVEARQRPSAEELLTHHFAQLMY
Description: as §1, §2

PDGFRA = PDGFRA (Homo sapiens, UniProt P16234); conditions: read-out: % control
PDGFRA, sequence (P16234 24-1089): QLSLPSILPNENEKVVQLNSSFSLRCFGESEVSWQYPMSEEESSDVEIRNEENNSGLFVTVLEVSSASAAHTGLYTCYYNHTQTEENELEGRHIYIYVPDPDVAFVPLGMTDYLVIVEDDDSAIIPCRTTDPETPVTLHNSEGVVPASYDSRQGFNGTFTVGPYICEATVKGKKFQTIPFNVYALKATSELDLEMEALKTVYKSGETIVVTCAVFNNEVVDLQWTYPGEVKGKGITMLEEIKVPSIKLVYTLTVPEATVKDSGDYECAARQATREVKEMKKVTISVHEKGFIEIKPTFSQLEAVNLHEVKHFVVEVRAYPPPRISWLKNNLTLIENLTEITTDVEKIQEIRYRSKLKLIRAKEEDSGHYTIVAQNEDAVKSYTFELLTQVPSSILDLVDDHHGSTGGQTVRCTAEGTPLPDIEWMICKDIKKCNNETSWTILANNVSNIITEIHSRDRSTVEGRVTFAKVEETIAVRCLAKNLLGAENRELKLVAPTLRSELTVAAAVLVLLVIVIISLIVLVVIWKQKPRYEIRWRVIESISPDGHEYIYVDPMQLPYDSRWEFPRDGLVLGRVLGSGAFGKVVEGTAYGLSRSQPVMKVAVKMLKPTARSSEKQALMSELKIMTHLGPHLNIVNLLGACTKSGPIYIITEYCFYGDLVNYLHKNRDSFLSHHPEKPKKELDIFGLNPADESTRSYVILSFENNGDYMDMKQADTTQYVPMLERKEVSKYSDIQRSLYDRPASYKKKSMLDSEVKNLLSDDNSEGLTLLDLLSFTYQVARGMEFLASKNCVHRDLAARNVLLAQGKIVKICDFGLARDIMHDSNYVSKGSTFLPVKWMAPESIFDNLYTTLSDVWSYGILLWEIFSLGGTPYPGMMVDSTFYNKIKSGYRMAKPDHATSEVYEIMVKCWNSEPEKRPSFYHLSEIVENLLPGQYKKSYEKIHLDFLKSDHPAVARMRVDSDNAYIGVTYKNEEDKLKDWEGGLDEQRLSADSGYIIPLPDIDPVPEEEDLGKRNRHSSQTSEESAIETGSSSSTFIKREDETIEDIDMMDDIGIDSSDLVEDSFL
Description: as §1, §2

RET(M918T) = RET(M918T) (Homo sapiens, UniProt P07949, M918T); conditions: read-out: % control
RET(M918T), sequence (P07949 29-1114 M918T): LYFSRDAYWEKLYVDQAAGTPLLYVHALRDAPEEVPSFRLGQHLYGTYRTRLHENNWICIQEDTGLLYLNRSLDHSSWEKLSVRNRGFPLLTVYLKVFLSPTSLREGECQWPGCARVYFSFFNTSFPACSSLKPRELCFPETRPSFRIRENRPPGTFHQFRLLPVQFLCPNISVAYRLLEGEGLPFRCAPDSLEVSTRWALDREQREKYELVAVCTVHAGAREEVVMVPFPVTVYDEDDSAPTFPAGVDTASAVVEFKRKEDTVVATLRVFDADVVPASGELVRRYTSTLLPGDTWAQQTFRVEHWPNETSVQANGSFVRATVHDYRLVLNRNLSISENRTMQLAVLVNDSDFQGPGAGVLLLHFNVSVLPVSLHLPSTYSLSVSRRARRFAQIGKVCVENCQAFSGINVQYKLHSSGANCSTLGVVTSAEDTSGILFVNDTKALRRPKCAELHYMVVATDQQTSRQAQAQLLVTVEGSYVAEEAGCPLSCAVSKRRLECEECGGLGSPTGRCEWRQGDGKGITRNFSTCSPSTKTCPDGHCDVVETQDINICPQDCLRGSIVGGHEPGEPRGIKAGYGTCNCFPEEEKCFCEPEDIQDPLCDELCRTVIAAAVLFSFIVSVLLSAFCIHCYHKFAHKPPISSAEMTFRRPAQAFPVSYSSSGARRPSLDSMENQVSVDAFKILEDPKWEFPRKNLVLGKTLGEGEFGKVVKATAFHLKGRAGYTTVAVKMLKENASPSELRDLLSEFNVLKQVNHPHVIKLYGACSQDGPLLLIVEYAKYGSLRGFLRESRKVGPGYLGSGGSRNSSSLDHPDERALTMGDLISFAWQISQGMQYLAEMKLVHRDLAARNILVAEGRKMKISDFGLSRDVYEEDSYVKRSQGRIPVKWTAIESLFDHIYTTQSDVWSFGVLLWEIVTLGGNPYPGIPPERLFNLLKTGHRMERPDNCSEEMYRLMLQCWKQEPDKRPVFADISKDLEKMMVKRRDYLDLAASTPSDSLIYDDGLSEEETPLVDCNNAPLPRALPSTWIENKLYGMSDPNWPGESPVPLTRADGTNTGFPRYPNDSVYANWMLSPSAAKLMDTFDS
Description: as §1, §2

CNc1c(-c2cnn([C@H]3CCN(C(C)=O)C[C@@H]3F)c2)cnc2[nH]cc(Cl)c12 [Compound 77, 1-((3S,4S)-4-(4-(3-chloro-4-(methylamino)-1H-pyrrolo[2,3-b]pyridin-5-yl)-1H-pyrazol-1-yl)-3-fluoropiperidin-1-yl)ethan-1-one]
remaining binding at 1 µM [1]: 81% | remaining binding at 1 µM (ASK1): 4.3% | remaining binding at 1 µM (CDK4-cyclinD3): 98% | remaining binding at 1 µM (CLK2): 57% | remaining binding at 1 µM (EGFR): 95% | remaining binding at 1 µM (MAP3K3): 44% | remaining binding at 1 µM (PDGFRA): 11% | remaining binding at 1 µM (RET(M918T)): 33%

CNc1c(-c2ccc(C(=O)N3CCC(N4CCOCC4)CC3)cc2)cnc2[nH]cc(Cl)c12 [Compound 96, (4-(3-chloro-4-(methylamino)-1H-pyrrolo[2,3-b]pyridin-5-yl)phenyl)(4-morpholinopiperidin-1-yl)methanone]
remaining binding at 1 µM [1]: 100% | remaining binding at 1 µM (ASK1): 5.9% | remaining binding at 1 µM (CDK4-cyclinD3): 100% | remaining binding at 1 µM (CLK2): 11% | remaining binding at 1 µM (EGFR): 100% | remaining binding at 1 µM (MAP3K3): 51% | remaining binding at 1 µM (PDGFRA): 45% | remaining binding at 1 µM (RET(M918T)): 72%

O=C(c1ccc(-c2cnc3[nH]cc(Cl)c3c2NC2CCCC2)cc1)N1CCC(N2CCOCC2)CC1 [Compound 101, (4-(3-chloro-4-(cyclopentylamino)-1H-pyrrolo[2,3-b]pyridin-5-yl)phenyl)(4-morpholinopiperidin-1-yl)methanone]
remaining binding at 1 µM [1]: 100% | remaining binding at 1 µM (ASK1): 94% | remaining binding at 1 µM (CDK4-cyclinD3): 99% | remaining binding at 1 µM (CLK2): 65% | remaining binding at 1 µM (EGFR): 97% | remaining binding at 1 µM (MAP3K3): 47% | remaining binding at 1 µM (PDGFRA): 92% | remaining binding at 1 µM (RET(M918T)): 95%
